Laboratory results: PMC8446315, “Synthesis, biological evaluation, molecular modeling, and structural analysis of new pyrazole and pyrazolone derivatives as N‐formyl peptide receptors agonists” (Chemical Biology & Drug Design, 2021)
Like-named read-outs stand apart in the source and are kept apart here.

Experiments:
FPR2 = biological target: T1, FPR2 (Homo sapiens, UniProt P25090); assay: Ca2+ mobilization in FPR2-transfected HL60 cells; format: cell-based; details: for efficacy (%) HL60‐FPR2: % of the response induced by 5 nM WKYMVm
T1 construct: expressed in transfected cells
T1 sequence (P25090 1-351): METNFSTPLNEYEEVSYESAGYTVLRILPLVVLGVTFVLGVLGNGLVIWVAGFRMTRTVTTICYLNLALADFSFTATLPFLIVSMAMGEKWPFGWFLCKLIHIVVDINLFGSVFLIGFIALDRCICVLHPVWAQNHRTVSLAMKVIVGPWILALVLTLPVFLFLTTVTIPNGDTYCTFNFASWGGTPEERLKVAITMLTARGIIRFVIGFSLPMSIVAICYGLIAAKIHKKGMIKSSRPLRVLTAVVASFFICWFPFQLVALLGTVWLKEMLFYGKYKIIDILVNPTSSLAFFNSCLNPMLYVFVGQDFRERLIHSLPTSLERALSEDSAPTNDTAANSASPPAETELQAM
Description: (§1) Although stable cell lines are cultured under G418 selection pressure, G418 may affect some assays, so it was removed in the last round of culture before assays were performed.
(§2) Changes in intracellular Ca^2+ were measured with a FlexStation II scanning fluorometer (Molecular Devices). The cells, suspended in Hank's balanced salt solution without Ca^2+ and Mg^2+ but with 10 mM HEPES (HBSS^‐), were loaded with 1.25 μg/ml Fluo‐4 a.m. dye and incubated for 30 min in the dark at 37°C. After dye loading, the cells were washed with HBSS^‐ containing 10 mM HEPES, resuspended in HBSS^+ containing Ca^2+, Mg^2+, and 10 mM HEPES (HBSS^+), and aliquoted into the wells of flat‐bottom, half‐area‐well black microtiter plates (2 × 10^5 cells/well). For evaluation of direct agonist activity, compounds of interest were added from a source plate containing dilutions of test compounds in HBSS^+, and changes in fluorescence were monitored (λex = 485 nm, λem = 538 nm) every 5 s for 240 s at room temperature after automated addition of compounds. Maximum change in fluorescence during the first 3 min, expressed in arbitrary units over baseline, was used to determine a response. […] Curve fitting (5–6 points) and calculation of median effective inhibitory concentrations (IC50) were performed by nonlinear regression analysis of the dose–response curves generated using Prism 7 (GraphPad Software, Inc.).

FPR1 = biological target: T2, FPR1 (Homo sapiens, UniProt P21462); assay: Ca2+ mobilization in FPR1-transfected HL60 cells; format: cell-based; details: for efficacy (%) HL60‐FPR1: % of the response induced by 5 nM fMLF
T2 construct: expressed in transfected cells
T2 sequence (P21462 1-350): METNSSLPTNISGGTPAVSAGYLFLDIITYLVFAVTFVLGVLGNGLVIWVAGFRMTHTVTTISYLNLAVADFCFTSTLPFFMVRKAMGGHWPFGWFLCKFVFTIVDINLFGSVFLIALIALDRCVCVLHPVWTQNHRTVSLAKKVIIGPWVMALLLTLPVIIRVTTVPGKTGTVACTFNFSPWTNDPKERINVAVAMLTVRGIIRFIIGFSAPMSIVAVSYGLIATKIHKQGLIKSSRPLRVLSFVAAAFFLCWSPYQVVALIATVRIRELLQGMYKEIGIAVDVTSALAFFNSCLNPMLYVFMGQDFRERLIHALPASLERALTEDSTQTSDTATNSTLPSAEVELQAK
Description: as §1, §2

FPR3 = details: Figure 2, ref Vergelli et al., cited from earlier work
[1] = test system: rat model of rheumatoid arthritis; parameters: method as in Crocetti et al., 2020; details: ref Crocetti et al., 2020; cited from earlier work
human neutrophils (hPMN) = assay: Ca2+ mobilization in human neutrophils (hPMN); format: cell-based; details: for efficacy (%) hPMN: % of the response induced by 5 nM fMLF; for EC50: Homo sapiens, Neutrophil
Excerpt: Blood was collected from healthy donors in accordance with a protocol approved by the Institutional Review Board at Montana State University. Neutrophils were purified from the blood using dextran sedimentation, followed by Histopaque 1077 gradient separation and hypotonic lysis of red blood cells. Isolated neutrophils were washed twice and resuspended in HBSS^‐. Neutrophil preparations were routinely >95% pure, as determined by light microscopy, and >98% viable, as determined by trypan blue exclusion.
Changes in intracellular Ca^2+ were measured with a FlexStation II scanning fluorometer (Molecular Devices). The cells, suspended in Hank's balanced salt solution without Ca^2+ and Mg^2+ but with 10 mM HEPES (HBSS^‐), were loaded with 1.25 μg/ml Fluo‐4 a.m. dye and incubated for 30 min in the dark at 37°C. After dye loading, the cells were washed with HBSS^‐ containing 10 mM HEPES, resuspended in HBSS^+ containing Ca^2+, Mg^2+, and 10 mM HEPES (HBSS^+), and aliquoted into the wells of flat‐bottom, half‐area‐well black microtiter plates (2 × 10^5 cells/well). For evaluation of direct agonist activity, compounds of interest were added from a source plate containing dilutions of test compounds in HBSS^+, and changes in fluorescence were monitored (λex = 485 nm, λem = 538 nm) every 5 s for 240 s at room temperature after automated addition of compounds. Maximum change in fluorescence during the first 3 min, expressed in arbitrary units over baseline, was used to determine a response. […] Curve fitting (5–6 points) and calculation of median effective […] were performed by nonlinear regression analysis of the dose–response curves generated using Prism 7 (GraphPad Software, Inc.).

healthy human subject = test system: healthy human subject; parameters: method as in Lind et al., 2019; Stalder et al., 2017; details: phase I clinical trial, ref Lind et al., 2019, Stalder et al., 2017; cited from earlier work
[2] = test system: animal models of rheumatoid arthritis; parameters: method as in Burli et al., 2006; Odobasic et al., 2018; details: ref Burli et al., 2006; Odobasic et al., 2018; cited from earlier work
[3] = Ca2+ mobilization, mean of three independent experiments, N.A. = no activity (limits efficacy <20% and EC50 < 50 µM)

| SMILES | efficacy (%) HL60‐FPR2 (FPR2) [%] | efficacy (%) HL60‐FPR1 (FPR1) [%] | efficacy (%) hPMN (human neutrophils (hPMN)) [%] | EC50 (FPR2) [µM] | melting point | EC50 (human neutrophils (hPMN)) [µM] | other results |
| --- | --- | --- | --- | --- | --- | --- | --- |
| COc1cccc(Cc2c(C)c(C)nn(CC(=O)Nc3ccc(Br)cc3)c2=O)c1 [EC3, reference compound] | 80 | 85 | 150 | – | – | – | EC50 (FPR2; [3]): 0.043 ± 0.0016 µM; EC50 (FPR1; [3]): 0.019 ± 0.005 µM; EC50 (FPR3; 2017): 0.04 µM; anti‐inflammatory activity in vivo [1]: anti‐inflammatory activity |
| COc1cccc(Nc2ccnn2CC(=O)Nc2ccc(Br)cc2)c1 [Compound 4e, N‐(4‐Bromophenyl)‐2‐[5‐(3‐methoxyphenylamino)‐pyrazol‐1‐yl]acetamide] | 60 | 85 | 75 | 23.4 ± 5.3 | 140 to 143 °C | 8.2 ± 2.6 | EC50 (FPR1): 13.2 ± 2.6 µM |
| O=C(Cn1c(=O)ccn1-c1ccccc1)Nc1ccc(Br)cc1 [Compound 9a, N‐(4‐Bromophenyl)‐2‐(5‐oxo‐2‐phenyl‐2,5‐dihydropyrazol‐1‐yl)acetamide] | – | – | – | – | 136 to 139 °C | – | – |
| CCCCCCn1c(=O)c(-c2cccc(OC)c2)cn1-c1ccccc1 [Compound 13f, Hexyl‐4‐(3‐methoxyphenyl)‐1‐phenyl‐1,2‐dihydropyrazol‐3‐one] | 90 | 35 | 55 | 10.5 ± 3.5 | – | 13.8 ± 4.2 | EC50 (FPR1): 20.2 ± 5.4 µM |
| Nc1cn(-c2ccccc2)n(CC(=O)Nc2ccc(Br)cc2)c1=O [Compound 9b, 2‐(4‐Amino‐5‐oxo‐2‐phenyl‐2,5‐dihydropyrazol‐1‐yl)‐N‐(4‐bromophenyl)acetamide] | 50 | – | – | 23.1 ± 6.3 | 160 to 163 °C | – | EC50 (µM) hPMN (human neutrophils (hPMN); Ca2+ mobilization in human neutrophils, mean of three independent experiments, N.A. = no activity (limits efficacy <20% and EC50 < 50 µM)): inactive |
| COc1cccc(-c2nn(CC(=O)Nc3ccc(Br)cc3)c(C)c2C#N)c1 [Compound 7a, N‐(4‐Bromophenyl)‐2‐[4‐cyano‐3‐(3‐methoxyphenyl)‐5‐methylpyrazol‐1‐yl]acetamide] | 75 | 75 | 80 | 6.1 ± 2.2 | – | 6.5 ± 1.6 | preference for FPR2 (FPR2; FPR2 over FPR1, from EC50 values): threefold; EC50 (FPR1): 18.4 ± 4.3 µM |
| Cc1cccc(-c2oc(C)nc2C(=O)Nc2cnn(Cc3nc(C(C)(F)F)co3)n2)c1 [Act‐389949] | – | – | – | – | – | – | safety and tolerability (healthy human subject): safe and well tolerated |
| Cc1cc(OCC(=O)Nc2ccc(Br)cc2)n[nH]1 [Compound 15, N‐(4‐bromophenyl)‐2‐[(5‐methyl‐1H‐pyrazol‐3‐yl)oxy]acetamide] | 60 | 60 | 55 | 25.9 ± 6.4 | – | 18.6 ± 4.7 | EC50 (FPR1): 9.8 ± 2.7 µM |
| COc1ccc(Nc2c(C)c(-c3ccccc3)nn2CC(=O)Nc2ccc(Br)cc2)cc1 [Compound 4d, N‐(4‐Bromophenyl)‐2‐[5‐(4‐methoxyphenylamino)‐4‐methyl‐3‐phenylpyrazol‐1‐yl]acetamide] | – | – | – | – | 212 to 214 °C | – | – |
| CC(C)c1c(NC(=O)Nc2ccc(Cl)cc2)c(=O)n(-c2ccccc2)n1C [Cpd43] | – | – | – | – | – | – | profile in animal models of rheumatoid arthritis [2]: excellent profile |
| COc1cccc(Nc2cn(-c3ccccc3)n(CC(=O)Nc3ccc(Br)cc3)c2=O)c1 [Compound 10, N‐(4‐Bromophenyl)‐2‐[4‐(3‐methoxyphenylamino)‐5‐oxo‐2‐phenyl‐2,5‐dihydropyrazol‐1‐yl]acetamide] | – | – | – | – | 163 to 166 °C | – | – |
| COc1cccc(Nc2c(C(C)=O)c(C)nn(CC(=O)Nc3ccc(Br)cc3)c2=O)c1 [EC10, reference compound] | 60 | 185 | 150 | – | – | 0.036 ± 0.007 | EC50 (FPR2; [3]): 0.17 ± 0.038 µM; EC50 (FPR1; [3]): 0.045 ± 0.016 µM; EC50 (FPR3; 2016): 0.21 µM; anti‐inflammatory activity in vivo [1]: anti‐inflammatory activity |
| COc1cccc(-c2cc(C#N)c(=O)n(CC(=O)Nc3ccc(Br)cc3)c2C)c1 [Compound 2a] | – | – | – | – | – | – | anti‐inflammatory activity in vivo [1]: anti‐inflammatory activity |
| COc1ccc(Nc2c(C#N)cnn2CC(=O)Nc2ccc(Br)cc2)cc1 [Compound 4b, N‐(4‐Bromophenyl)‐2‐[4‐cyano‐5‐(4‐methoxyphenylamino)pyrazol‐1‐yl]acetamide] | – | – | – | – | 136 to 139 °C | – | – |
| COc1cccc(Nc2c(C)c(-c3ccccc3)nn2CC(=O)Nc2ccc(Br)cc2)c1 [Compound 4c, N‐(4‐Bromophenyl)‐2‐[5‐(3‐methoxyphenylamino)‐4‐methyl‐3‐phenylpyrazol‐1‐yl]acetamide] | – | – | – | – | > 300 °C (dec.) | – | – |
